Experiments:
[1] = Plasma protein binding by equilibrium dialysis; assay type: in vitro ADME, human; details: 37 °C
Protocol: Plasma protein binding was assessed by equilibrium dialysis in a 96-well dialysis block (HTDialysis, Ledyard, CT, USA). Dialysis membranes (12–14 kDa) were soaked in deionised water for at least 60 min. Membranes were soaked overnight at 4 °C in ethanol:water 20:80% v/v and then rinsed with deionised water immediately prior to use. […] Spiked plasma (150 µL) was dialysed against isotonic phosphate buffer (pH 7.4) (150 µL) for 5 h at 37 °C with shaking at 100 rpm. Thermal degradation controls for each test compound were kept at 37 °C and 4 °C. Blank control plasma and buffer were included in the incubation. Following incubation, dialysed plasma samples and thermal degradation controls (50 µL) were added to drug-free buffer (50 µL), and dialysed buffer samples (50 µL) were added to drug-free plasma (50 µL). […] Supernatant (150 µL) was added to 50 µL deionised water and samples were analysed by UPLC-MS/MS as described above. Dialysed buffer from each well was tested for protein contamination using BCA protein assay reagent to determine whether membranes had been compromised.
Bu = Analyte/IS ratio determined in buffer side (2) Fraction unbound, fu=(100−% bound)/100

[2] = Metabolic stability, pooled human liver microsome incubations
Protocol: Total incubation volume was 500 µL. Procedure: Test compound working solutions (50 µM in potassium phosphate buffer (pH 7.4)) were prepared (<1% DMSO). pHLM were thawed and diluted in potassium phosphate buffer (pH 7.4). […] Reactions were quenched in 200 µL ACN spiked with donepezil (IS, 50 ng mL^−1). […] Samples were analysed by UPLC-MS/MS in a 96 deep-well 2 mL plate. Each SCRA was incubated at least in triplicate but additional incubations were carried out across a number of analytical batches, giving greater replication and a greater understanding of system variability. Microsomal scaling factors used for human liver microsome incubations in the literature vary. Intrinsic clearance and predicted in vivo clearance rates calculated using alternative scaling factors found in the literature is provided in Section S6 of the supplementary information, to aid comparison of data between publications.
Equations used for in vitro intrinsic clearance calculation and human in vivo clearance […]
The equations used for in vitro intrinsic clearance calculation and human in vivo clearance estimation […]
Microsomal clearance (HLM incubations) in mL min-1 mg microsomal protein-1 [3]
Intrinsic clearance (whole-liver dimensions) (HLM incubations) in mL min-1 kg-1 [3] CL = k x V x [Liver](g) x SF Eqn. 7 […]
mg g microsomal protein-1 [7]
Intrinsic clearance (whole-liver dimensions) (HHep incubations) in mL min-1 kg-1 [4] CL = k x V x hepatocytes/g liver x [Liver](g) Eqn. 8 […]
Where: hepatocytes/g liver = 107x10^6 cells/g liver
Hepatic clearance in mL min-1 kg-1 [3]
[…] Eqn. 9
Where: Q = hepatic blood flow, 21 mL min-1 kg-1 [9]; fu = fraction unbound (plasma); CLint = […]
Estimated human hepatic extraction ratio [5]
Intrinsic clearance data – pooled human liver microsome incubations […]
table S4-28. Intrinsic clearance and predicted in vivo data calculated using alternative microsomal scaling factors found in the literature – 32 [10] and 45 [11] mg microsomal protein per gram liver – are provided in tables S29 and S30, respectively.

[3] = Short-term plasma stability with and without esterase inhibitors; details: 3 h, 37 °C
[4] = tested on: pooled human cryopreserved hepatocytes (pHHeps); assay: Metabolic stability, pooled human cryopreserved hepatocyte incubations
[5] = HLM, ref 14 (THJ-018, THJ-2201), 15 (NNEI, MN-18), 106 (NM-2201), 107 (BIM-2201), 108 (STS-135), 16 (AB-PINACA, 5F-AB-PINACA), 54 (5F-MDMB-PINACA), 69 (AB-FUBINACA), 17 (ADB-FUBINACA), 97 (FDU-PB-22, FUB-PB-22), cited from earlier work; for CLint micr / t1/2: 95 (Cumyl-PICA, 5F-Cumyl-PICA), 109 (5F-APP-PICA, 5F-APP-PINACA; for CLint micr: 73 (5F-AMB-PINACA); for t1/2 / CLint: 57 (AMB-4en-PICA); for t1/2: 73 (AMB-PINACA, 5F-AMB-PINACA)
[6] = pHLM, scaling factor 32 mg microsomal protein per gram liver
[7] = pHLM, scaling factor 45 mg microsomal protein per gram liver
[8] = pHHeps, 99x10^6 hepatocytes per gram liver

COC(=O)[C@H](NC(=O)c1cn(CCCCCF)c2ccccc12)C(C)(C)C [(R)-5F-MDMB-PICA (3), methyl 2-[1-(5-fluoropentyl)-1H-indole-3-carboxamido]-3,3-dimethylbutanoate]
PPB (%) ([1]; equilibrium dialysis 5 h, 10 µg mL^−1): 93.8 ± 0.15% | Fraction Unbound (fu) ([1]; equilibrium dialysis 5 h, plasma): 0.062 ± 0.0015 | Predicted In Vivo Hepatic Clearance, CLH ([2]; from pHLM CLint, well-stirred model with plasma fu, Q 21 mL min^−1 kg^−1): 7.22 ± 0.05 mL/min/kg | Hepatic extraction ratio, EH ([2]; from pHLM incubations): 0.34 ± 0.002 | T1/2 ([2]; pHLM 0.5 mg mL^−1, 0.5 µM, NADPH, 37 °C, n ≥ 3 ± SD): 11 ± 0.11 min | % parent compound remaining, Average ([2]; pHLM, 3 min): 72.6% | % parent compound remaining, Average ([2]; pHLM, 6 min): 62.5% | % parent compound remaining, Average ([2]; pHLM, 9 min): 52.6% | % parent compound remaining, Average ([2]; pHLM, 15 min): 36.8% | % parent compound remaining, Average ([2]; pHLM, 30 min): 16.4% | Intrinsic clearance, CLint ([2]; pHLM, alternative microsomal scaling factor 32 mg microsomal protein per gram liver): 108 ± 1.13 mL/min/kg | Intrinsic clearance, CLint ([2]; pHLM, alternative microsomal scaling factor 45 mg microsomal protein per gram liver): 152 ± 1.59 mL/min/kg | Microsomal Intrinsic Clearance, CLint micr ([2]; pHLM, n ≥ 3 ± SD): 0.132 ± 0.001 mL min^−1 mg Microsomal Protein^−1 | Hepatic extraction ratio, EH [2, 6]: 0.24 ± 0.002 | Predicted in vivo hepatic clearance, CLH [2, 6]: 5.09 ± 0.04 mL/min/kg | Hepatic extraction ratio, EH [2, 7]: 0.31 ± 0.002 | Predicted in vivo hepatic clearance, CLH [2, 7]: 6.51 ± 0.05 mL/min/kg | Parent Compound Remaining (%), Esterase Inhibitors ([3]; pH 7.4, BNPP and PMSF 500 µM each): 97.7 ± 5.6% | Parent Compound Remaining (%), No Esterase Inhibitors ([3]; pH 7.4, pooled human plasma): 103.2 ± 14.5% | Predicted In Vivo Hepatic Clearance, CLH ([4]; from pHHeps CLint, well-stirred model with plasma fu, Q 21 mL min^−1 kg^−1): 6.27 ± 0.74 mL/min/kg | Hepatic extraction ratio, EH ([4]; from pHHeps incubations): 0.30 ± 0.035 | T1/2 ([4]; pHHeps 0.25 million cells mL^−1, 0.5 µM, 37 °C, n ≥ 3 ± SD): 54 ± 9.4 min | Hepatic extraction ratio, EH [4, 8]: 0.28 ± 0.034 | Predicted in vivo hepatic clearance, CLH [4, 8]: 5.94 ± 0.72 mL/min/kg | % parent compound remaining, Average ([4]; pHHeps, 3 min): 87.4% | % parent compound remaining, Average ([4]; pHHeps, 6 min): 85.8% | % parent compound remaining, Average ([4]; pHHeps, 9 min): 88.6% | % parent compound remaining, Average ([4]; pHHeps, 15 min): 78.8% | % parent compound remaining, Average ([4]; pHHeps, 30 min): 64.9% | % parent compound remaining, Average ([4]; pHHeps, 45 min): 51.8% | % parent compound remaining, Average ([4]; pHHeps, 60 min): 43.7% | Intrinsic clearance, CLint ([4]; pHHeps, alternative hepatocyte cell density 99x10^6 hepatocytes per gram liver): 134 ± 22.3 mL/min/kg

CCCCCn1nc(C(=O)Nc2cccc3ccccc23)c2ccccc21 [MN-18]
CLint micr [5]: 410 µL/min/mg | t1/2 [5]: 1.71 min | CLint [5]: 469 mL/min/kg

CC(C)(NC(=O)c1cn(CCCCCF)c2ccccc12)c1ccccc1 [5F-Cumyl-PICA]
CLint micr [5]: 390 µL/min/mg | t1/2 [5]: 1.77 min

CC(C)[C@H](NC(=O)c1nn(CCCCCF)c2ccccc12)C(N)=O [Compound 5F-AB-PINACA]
CLint micr [5]: 19 µL/min/mg | t1/2 [5]: 35.9 min | CLint [5]: 18 mL/min/kg

NC(=O)[C@H](Cc1ccccc1)NC(=O)c1nn(CCCCCF)c2ccccc12 [5F-APP-PINACA]
CLint micr [5]: 202 µL/min/mg | t1/2 [5]: 3.4 min

O=C(Oc1cccc2ccccc12)c1cn(Cc2ccc(F)cc2)c2ccccc12 [FDU-PB-22]
CLint micr [5]: 56 µL/min/mg | t1/2 [5]: 12.4 min | CLint [5]: 52.7 mL/min/kg

CCCCCn1cc(C(=O)NC(C)(C)c2ccccc2)c2ccccc21 [Cumyl-PICA, 1-pentyl-N-(2-phenylpropan-2-yl)-1H-indole-3-carboxamide]
CLint micr [5]: 120 µL/min/mg | t1/2 [5]: 5.92 min

O=C(NC12CC3CC(CC(C3)C1)C2)c1cn(CCCCCF)c2ccccc12 [STS-135, N-(adamantan-1-yl)-1-(5-fluoropentyl)-1H-indole-3-carboxamide]
CLint micr [5]: 222 µL/min/mg | t1/2 [5]: 3.1 min | CLint [5]: 209 mL/min/kg

CCCCCn1nc(C(=O)c2cccc3ccccc23)c2ccccc21 [THJ-018]
CLint micr [5]: 36 µL/min/mg | t1/2 [5]: 19.2 min | CLint [5]: 34.2 mL/min/kg

O=C(c1cccc2ccccc12)c1nc2ccccc2n1CCCCCF [BIM-2201]
CLint micr [5]: 142 µL/min/mg | t1/2 [5]: 4.9 min | CLint [5]: 134.1 mL/min/kg

O=C(Oc1cccc2ccccc12)c1cn(CCCCCF)c2ccccc12 [NM-2201]
CLint micr [5]: 88 µL/min/mg | t1/2 [5]: 8.0 min | CLint [5]: 81.6 mL/min/kg

O=C(c1cccc2ccccc12)c1nn(CCCCCF)c2ccccc12 [THJ-2201]
CLint micr [5]: 64 µL/min/mg | t1/2 [5]: 10.8 min | CLint [5]: 60.8 mL/min/kg

CCCCCn1cc(C(=O)Nc2cccc3ccccc23)c2ccccc21 [NNEI]
CLint micr [5]: 300 µL/min/mg | t1/2 [5]: 2.29 min | CLint [5]: 350 mL/min/kg

CCCCCn1nc(C(=O)N[C@H](C(N)=O)C(C)C)c2ccccc21 [AB-PINACA]
CLint micr [5]: 37 µL/min/mg | t1/2 [5]: 18.7 min | CLint [5]: 35 mL/min/kg

COC(=O)C1=C(C)NC(C)=C(C(=O)OCCN(C)Cc2ccccc2)C1c1cccc([N+](=O)[O-])c1 (stereo not drawn) [nicardipine, reference compound]
fraction unbound at 5 h, 10 µg mL^−1 ([1]; human, pooled human plasma, pH 7.4, equilibrium dialysis 5 h, 10 µg mL^−1, read-out: PPB (%) (converted)): 0.023

NC(=O)[C@H](Cc1ccccc1)NC(=O)c1nn(CC2CCCCC2)c2ccccc12
CLint micr [5]: 133 µL/min/mg | t1/2 [5]: 5.2 min

O=C(Oc1cccc2cccnc12)c1cn(Cc2ccc(F)cc2)c2ccccc12 [FUB-PB-22]
CLint micr [5]: 60 µL/min/mg | t1/2 [5]: 11.5 min | CLint [5]: 57.1 mL/min/kg

CCCCCn1nc(C(=O)N[C@H](C(=O)OC)C(C)C)c2ccccc21 [AMB-PINACA, methyl (1-pentyl-1H-indazole-3-carbonyl)valinate]
t1/2 [5]: 1.1 min

Reference: article PMC7961380, “A Systematic Study of the In Vitro Pharmacokinetics and Estimated Human In Vivo Clearance of Indole and Indazole-3-Carboxamide Synthetic Cannabinoid Receptor Agonists Detected on the Illicit Drug Market” (Molecules, 2021)
